# Key:
# [1] = Single-dose ECG study in healthy human volunteers (1.6 and 3.2 mg/kg over 30 minutes); type: in vivo; conditions: 3.2 mg/kg infused over 30 minutes
# Method: Based on this, a single-dose ECG-study was conducted in healthy human volunteers, where 1.6 mg/kg and 3.2 mg/kg iclaprim was infused over 30 minutes. […] Maximal increases coincided with Cmax levels and were rapidly reversible. Weight-based dosing with 1.6 mg/kg was thus assessed as acceptable for clinical purposes, whereas weight-based dosing at 3.2 mg/kg was associated with relevant QTc prolongations (>60 msec) and nonspecific T-wave alterations, and was not used for further clinical studies.
# [2] = test system: methicillin-resistant Staphylococcus aureus (MRSA) isolates; test: Broth microdilution MIC against MRSA nonsusceptible to daptomycin, linezolid or vancomycin; type: cell-based
# Method: Antibacterial susceptibility testing was conducted on a range of MRSA strains and isolates with varying susceptibilities to several recognized antistaphylococcal antibiotics. Susceptibility testing was performed by broth microdilution in accordance with the Clinical and Laboratory and Standards Institute (CLSI) guidelines. Minimum inhibitory concentrations (MICs) were based on CLSI criteria.
# M. catarrhalis = test: MIC with/without bovine pulmonary surfactant, M. catarrhalis; type: cell-based, Moraxella catarrhalis; conditions: for MICRZ, Resazurin: +BPS: 2.5% v/v BPS
# Method: Clinical isolates were identified by the submitting laboratories and confirmed by JMI Laboratories using standard bacteriologic algorithms and methodologies, including Matrix-Assisted Laser Desorption Ionization-Time Of Flight Mass Spectrometry (MALDI-TOF MS). When necessary, MALDI-TOF MS was performed using the Bruker Daltonics MALDI Biotyper (Billerica, Mass., USA), following manufacturer's instructions. Isolates selected were bacterial species commonly associated with pneumonia. […] 2.2 Susceptibility testing
# Antibacterial susceptibility testing was measured by JMI Labs (North Liberty, Iowa, USA). […] These clinical isolates were collected from US (n=4), Mexico (n=2), and Italy (n=1). Susceptibility testing was performed by broth microdilution in accordance with the Clinical and Laboratory and Standards Institute (CLSI) guidelines M07-A10 (2015) and the standard operating procedures at JMI laboratories. Minimum inhibitory concentrations (MICs) were based on CLSI criteria (2015). There are no published breakpoints for iclaprim. E. coli, K. pneumoniae, M. catarrhalis, E. faecalis, and S. aureus were tested in cation-adjusted Mueller-Hinton broth (CA-MHB). S. pneumoniae were tested in CA-MHB supplemented with 2.5-5% lysed horse blood, and H. influenza were tested in Haemophilus test medium. Quality control and interpretation of results were performed in accordance with CLSI M100-S26 (2016) methods. QC ranges for iclaprim were those approved by CLSI and published in M100-S26 (2016). Iclaprim and comparator antibiotic MIC results were within the CLSI published ranges against E. coli ATCC 25922, E. faecalis ATCC 29212, E. faecalis ATCC 33186, H. influenzae ATCC 49247, K. pneumoniae ATCC 700603 (ESBL phenotype), S. aureus ATCC 29213, and S. pneumoniae ATCC 49619. Isolates were tested with MIC panels (ThermoFisher Scientific, Cleveland, Ohio, USA) of comparator antibiotics (daptomycin and levofloxacin).
# Because bovine pulmonary surfactant can introduce cloudiness to the MIC testing media, antimicrobial growth inhibition was also evaluated using the colorimetric metabolic indicator resazurin (Camlab Ltd., Cambridge, UK). […] S. pneumoniae panels were omitted from resazurin analysis because the color change was obscured by the lysed horse blood present in the test medium. Growth inhibition was then evaluated as a visible color change from blue (no growth) to pink (robust growth) and recorded as a MICRZ value.
# The MICs of iclaprim, levofloxacin, and daptomycin were determined against Gram-positive and Gram-negative isolates.
# A new vial of bovine pulmonary surfactant (BPS; Survanta®; Abbott Laboratories, Columbus, Ohio) was utilized for each independent experiment. Each vial was mixed thoroughly and a 100 μL aliquot was spread on an agar plate, which was incubated overnight to confirm sterility. […] The concentration of surfactant was expressed in terms of percent volume of Survanta® suspension, which consisted of phospholipid (25 mg/mL) and surfactant proteins (<1 mg/mL) in 0.9% sodium chloride solution (Goerke, 1998). MICs of daptomycin were determined in CAMHB with the Ca^2+ content adjusted to 50 mg/L.
smiles,measurement,setting,value
COc1cc(Cc2cnc(N)nc2N)c2c(c1OC)OC(C1CC1)C=C2 (racemic) [Iclaprim],QTc prolongations,[1],> 60 ms
same,MIC,"[2]; Staphylococcus aureus, MRSA, read-out: MIC to the majority of MRSA isolates",≤ 1 µg/mL
same,MIC50,"[2]; Staphylococcus aureus, 59 MRSA isolates",0.25 µg/mL
same,MRSA isolates with iclaprim MIC ≤1 μg/ml,[2]; isolates nonsusceptible to linezolid (25 of 25),100%
same,"isolates with reduced susceptibility, MICs >8 μg/mL",[2]; nine of 59 MRSA isolates,15.2%
same,"MICRZ, Resazurin: +BPS",M. catarrhalis; M. catarrhalis Clinical Isolate 893806,8 µg/mL
same,"MICRZ, Resazurin","M. catarrhalis; M. catarrhalis Clinical Isolate 893806, no BPS",4 µg/mL
same,"MICRZ, Resazurin: +BPS",M. catarrhalis; M. catarrhalis Clinical Isolate 893807,4 µg/mL
same,"MICRZ, Resazurin","M. catarrhalis; M. catarrhalis Clinical Isolate 893807, no BPS",4 µg/mL
same,MIC,"M. catarrhalis; Moraxella catarrhalis, M. catarrhalis Clinical Isolate 893806, no BPS",4 µg/mL
